Results as given in patent US20080176826A1, “Pyridine Compounds For Combating Arthropod Pests and Nematodes” (priority 2005, published 2008).

Key:
[1] = test system: Green peach aphid (Myzus persicae), mixed life stages; assay: Green peach aphid foliar dip test, mortality; type: in vivo; conditions: 120 h, infested bell pepper leaves dipped 3 seconds, determined after 5 days, read-out: mortality of green peach aphid in comparison with untreated controls
Experimental: (§1) The active compounds were formulated in a mixture of 50 vol.-% acetone: 50 vol.-% water. A nonionic surfactant (Kinetic®) was included in the solution at a volume of 0.01% v/v.
(§2) In the following tests, the formulated solutions of the active compounds were diluted to an active ingredient concentration of 300 ppm and the diluted solutions were applied in the below mentioned tests.
Bell pepper plants at the first true-leaf stage were infested prior to treatment by placing heavily infested leaves from the main aphid colony on top of the treatment plants. The aphids were allowed to transfer overnight to accomplish an infestation of 30-40 aphids per plant and the host leaves were removed. The infested leaves of the test plants were then dipped and agitated in the test solution for 3 seconds and allowed to dry in a fume hood. Test plants were maintained under fluorescent lighting in a 24-hr photoperiod at 25° C. and 20-40% relative humidity. Aphid mortality on the treated plants, relative to mortality on untreated check plants, was determined after 5 days. Test compound A provided 85% mortality while test compounds B and C each provided 100% mortality of green peach aphid (Myzus persicae, mixed life stages) in comparison with untreated controls, when applied at 300 ppm. Test Compounds D, E, F, G and H each provided >85% mortality of green peach aphid (Myzus persicae, mixed life stages) in comparison with untreated controls, when applied at 300 ppm.

[2] = test system: Cotton aphid (Aphis gossypii), mixed life stages; assay: Cotton aphid foliar dip test, mortality; type: in vivo; conditions: 120 h, infested cotton cotyledons dipped 3 seconds, determined after 5 days, read-out: mortality of cotton aphid in comparison with untreated controls
Experimental: as §1, §2
Cotton plants at the cotyledon stage were infested prior to treatment by placing a heavily infested leaf from the main aphid colony on top of each cotyledon. The aphids were allowed to transfer overnight and the host leaf was removed. The infested cotyledons were then dipped and agitated in the test solution for 3 seconds and allowed to dry in a fume hood. Test plants were maintained under fluorescent lighting in a 24-hr photoperiod at 25° C. and 20-40% relative humidity. Aphid mortality on the treated plants, relative to mortality on untreated check plants, was determined after 5 days. In this test, test compounds B, C and F at 300 ppm provided 100%, and 86-99% mortality, respectively, of cotton aphid (Aphis gossypii, mixed life stages) in comparison with untreated controls. Test compound A at 300 ppm provided 75-85% mortality, respectively, of cotton aphid (Aphis gossypii, mixed life stages) in comparison with untreated controls.

| Structure (SMILES) | mortality at 300 ppm [1] | mortality at 300 ppm [2] |
| --- | --- | --- |
| CC(Oc1ccc(Cl)nc1)C1CCCN1OC(=O)c1ccccc1 (racemic) [Compound E, Benzoic acid 2-[1-(6-chloropyridin-3-yloxy)-ethyl]-pyrrolidin-1-yl ester] | > 85% |  |
| Clc1cncc(OC[C@H]2CCCN2)c1 [Compound A, R-3-Chloro-5-(pyrrolidin-2-ylmethyloxy)-pyridine] | 85% | 75 to 85% |
| CC(C)(C)C(=O)ON1CCCC1COc1cncc(Cl)c1 (stereo not drawn) [Compound B, 2,2-Dimethyl-propionic acid 2-(5-chloropyridin-3-yloxymethyl)pyrrolidin-1-yl ester] | 100% | 100% |
| CC(Oc1ccc(Cl)nc1)C1CCCN1 (stereo not drawn) [Compound F, 2-Chloro-5-(1-pyrrolidin-2-ylethoxy)-pyridine] | > 85% | 86 to 99% |
| CC(Oc1cncc(Cl)c1)C1CCCN1 (stereo not drawn) [Compound G, 3-Chloro-5-(1-pyrrolidin-2-ylethoxy)-pyridine] | > 85% |  |
| C[C@@H](Oc1cncc(Cl)c1)C1CCN1 (stereo partly drawn) [Compound H, 2S-3-(1-Azetidin-2-yl-ethoxy)-5-chloro-pyridine] | > 85% |  |
